Results taken from article PMC6407917, “Identification of GSK3186899/DDD853651 as a Preclinical Development Candidate for the Treatment of Visceral Leishmaniasis” (Journal of Medicinal Chemistry, 2018).

Tests used:
Assay in all cases: biochemical
Set-up in all cases: species or system HEK293/K-562/placenta mixed human extract; Kinobeads chemoproteomic competition binding, quantified by TMT LC-MS/MS, dose response up to 20 uM
ACVR1B = ACVR1B (Homo sapiens, UniProt P36896)
ARAF = ARAF (Homo sapiens, UniProt P10398)
AXL = AXL (Homo sapiens, UniProt P30530)
EGFR = EGFR (Homo sapiens, UniProt P00533)
IKBKE = IKBKE (Homo sapiens, UniProt Q14164)
JAK2 = JAK2 (Homo sapiens, UniProt O60674)
JAK3 = JAK3 (Homo sapiens, UniProt P52333)
LYN = LYN (Homo sapiens, UniProt P07948)
MAP3K15 = MAP3K15 (Homo sapiens, UniProt Q6ZN16)
MAPKAPK3 = MAPKAPK3 (Homo sapiens, UniProt Q16644)
PIK3R4 = PIK3R4 (Homo sapiens, UniProt Q99570)
PKN3 = PKN3 (Homo sapiens, UniProt Q6P5Z2)
PLK1 = PLK1 (Homo sapiens, UniProt P53350)
RIOK2 = RIOK2 (Homo sapiens, UniProt Q9BVS4)
SGK3 = SGK3 (Homo sapiens, UniProt Q96BR1)
SNRK = SNRK (Homo sapiens, UniProt Q9NRH2)
SRC = SRC (Homo sapiens, UniProt P12931)
TESK2 = TESK2 (Homo sapiens, UniProt Q96S53)
ULK1 = ULK1 (Homo sapiens, UniProt O75385)
WEE1 = WEE1 (Homo sapiens, UniProt P30291)
YWHAG = YWHAG (Homo sapiens, UniProt P61981)

Measured: IC50

Sequence of SGK3 (Q96BR1 whole entry): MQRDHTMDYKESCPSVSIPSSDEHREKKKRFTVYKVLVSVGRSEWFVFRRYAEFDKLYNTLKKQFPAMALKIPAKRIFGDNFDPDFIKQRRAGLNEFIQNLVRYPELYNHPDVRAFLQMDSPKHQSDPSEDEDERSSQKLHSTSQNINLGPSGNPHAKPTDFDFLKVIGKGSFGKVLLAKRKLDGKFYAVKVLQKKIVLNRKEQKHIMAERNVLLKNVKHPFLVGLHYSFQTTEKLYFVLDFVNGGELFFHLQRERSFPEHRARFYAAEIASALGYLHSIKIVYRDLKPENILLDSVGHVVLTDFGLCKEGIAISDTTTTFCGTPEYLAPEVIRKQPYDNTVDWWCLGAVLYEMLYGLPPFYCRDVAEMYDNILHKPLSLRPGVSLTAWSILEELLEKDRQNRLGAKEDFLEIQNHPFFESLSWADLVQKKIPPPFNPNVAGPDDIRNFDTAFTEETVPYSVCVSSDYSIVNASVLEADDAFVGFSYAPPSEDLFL
Sequence of SRC (P12931 whole entry): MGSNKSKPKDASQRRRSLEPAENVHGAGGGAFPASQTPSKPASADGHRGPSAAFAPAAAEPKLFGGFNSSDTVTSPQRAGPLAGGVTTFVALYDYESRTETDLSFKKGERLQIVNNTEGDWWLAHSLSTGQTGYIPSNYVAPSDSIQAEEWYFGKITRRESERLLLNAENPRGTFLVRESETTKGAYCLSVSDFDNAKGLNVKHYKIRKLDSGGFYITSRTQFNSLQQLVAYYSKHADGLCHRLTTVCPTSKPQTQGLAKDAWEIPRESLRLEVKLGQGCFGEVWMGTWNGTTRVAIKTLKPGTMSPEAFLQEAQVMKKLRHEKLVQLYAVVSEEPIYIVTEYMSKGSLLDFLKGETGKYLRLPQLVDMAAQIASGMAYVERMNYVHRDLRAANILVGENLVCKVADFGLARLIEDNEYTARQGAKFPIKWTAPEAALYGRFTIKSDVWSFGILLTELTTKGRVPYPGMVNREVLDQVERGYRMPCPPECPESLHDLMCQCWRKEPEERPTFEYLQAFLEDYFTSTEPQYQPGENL
Sequence of RIOK2 (Q9BVS4 whole entry): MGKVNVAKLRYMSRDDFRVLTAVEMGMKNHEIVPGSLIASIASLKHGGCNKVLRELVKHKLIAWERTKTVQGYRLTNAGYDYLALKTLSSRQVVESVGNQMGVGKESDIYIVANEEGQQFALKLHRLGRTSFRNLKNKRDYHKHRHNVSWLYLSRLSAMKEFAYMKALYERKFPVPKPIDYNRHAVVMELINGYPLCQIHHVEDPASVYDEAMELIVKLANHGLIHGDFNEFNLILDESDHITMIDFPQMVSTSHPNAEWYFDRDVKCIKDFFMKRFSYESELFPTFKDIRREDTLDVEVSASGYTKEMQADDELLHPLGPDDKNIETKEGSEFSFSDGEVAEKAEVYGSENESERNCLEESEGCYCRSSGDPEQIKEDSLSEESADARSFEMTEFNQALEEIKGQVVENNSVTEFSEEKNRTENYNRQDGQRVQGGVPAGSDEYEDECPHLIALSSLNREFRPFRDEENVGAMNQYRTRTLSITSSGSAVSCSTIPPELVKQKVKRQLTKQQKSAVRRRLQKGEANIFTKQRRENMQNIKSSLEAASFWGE
Sequence of YWHAG (P61981 whole entry): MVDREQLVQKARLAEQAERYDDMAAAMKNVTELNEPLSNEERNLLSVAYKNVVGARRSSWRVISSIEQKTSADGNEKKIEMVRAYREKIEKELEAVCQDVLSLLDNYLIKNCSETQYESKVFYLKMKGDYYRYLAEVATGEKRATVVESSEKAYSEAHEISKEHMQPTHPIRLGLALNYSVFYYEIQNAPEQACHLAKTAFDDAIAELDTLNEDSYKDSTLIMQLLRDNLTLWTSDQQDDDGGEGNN
Sequence of PLK1 (P53350 whole entry): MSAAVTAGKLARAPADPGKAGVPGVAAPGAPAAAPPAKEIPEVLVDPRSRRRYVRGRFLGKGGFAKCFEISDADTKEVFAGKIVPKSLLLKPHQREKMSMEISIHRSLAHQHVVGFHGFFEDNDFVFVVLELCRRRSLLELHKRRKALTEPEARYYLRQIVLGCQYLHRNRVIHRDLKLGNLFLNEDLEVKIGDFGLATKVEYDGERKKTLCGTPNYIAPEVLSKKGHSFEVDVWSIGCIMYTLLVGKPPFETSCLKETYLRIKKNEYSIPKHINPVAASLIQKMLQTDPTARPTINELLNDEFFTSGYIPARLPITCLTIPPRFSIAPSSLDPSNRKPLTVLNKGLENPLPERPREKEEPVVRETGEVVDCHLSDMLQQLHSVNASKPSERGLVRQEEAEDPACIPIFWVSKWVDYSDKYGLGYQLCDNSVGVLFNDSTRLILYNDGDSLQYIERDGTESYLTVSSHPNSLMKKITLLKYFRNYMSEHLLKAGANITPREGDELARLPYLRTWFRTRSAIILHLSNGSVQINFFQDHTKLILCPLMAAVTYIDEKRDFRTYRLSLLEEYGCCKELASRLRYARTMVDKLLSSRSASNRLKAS
Sequence of JAK3 (P52333 whole entry): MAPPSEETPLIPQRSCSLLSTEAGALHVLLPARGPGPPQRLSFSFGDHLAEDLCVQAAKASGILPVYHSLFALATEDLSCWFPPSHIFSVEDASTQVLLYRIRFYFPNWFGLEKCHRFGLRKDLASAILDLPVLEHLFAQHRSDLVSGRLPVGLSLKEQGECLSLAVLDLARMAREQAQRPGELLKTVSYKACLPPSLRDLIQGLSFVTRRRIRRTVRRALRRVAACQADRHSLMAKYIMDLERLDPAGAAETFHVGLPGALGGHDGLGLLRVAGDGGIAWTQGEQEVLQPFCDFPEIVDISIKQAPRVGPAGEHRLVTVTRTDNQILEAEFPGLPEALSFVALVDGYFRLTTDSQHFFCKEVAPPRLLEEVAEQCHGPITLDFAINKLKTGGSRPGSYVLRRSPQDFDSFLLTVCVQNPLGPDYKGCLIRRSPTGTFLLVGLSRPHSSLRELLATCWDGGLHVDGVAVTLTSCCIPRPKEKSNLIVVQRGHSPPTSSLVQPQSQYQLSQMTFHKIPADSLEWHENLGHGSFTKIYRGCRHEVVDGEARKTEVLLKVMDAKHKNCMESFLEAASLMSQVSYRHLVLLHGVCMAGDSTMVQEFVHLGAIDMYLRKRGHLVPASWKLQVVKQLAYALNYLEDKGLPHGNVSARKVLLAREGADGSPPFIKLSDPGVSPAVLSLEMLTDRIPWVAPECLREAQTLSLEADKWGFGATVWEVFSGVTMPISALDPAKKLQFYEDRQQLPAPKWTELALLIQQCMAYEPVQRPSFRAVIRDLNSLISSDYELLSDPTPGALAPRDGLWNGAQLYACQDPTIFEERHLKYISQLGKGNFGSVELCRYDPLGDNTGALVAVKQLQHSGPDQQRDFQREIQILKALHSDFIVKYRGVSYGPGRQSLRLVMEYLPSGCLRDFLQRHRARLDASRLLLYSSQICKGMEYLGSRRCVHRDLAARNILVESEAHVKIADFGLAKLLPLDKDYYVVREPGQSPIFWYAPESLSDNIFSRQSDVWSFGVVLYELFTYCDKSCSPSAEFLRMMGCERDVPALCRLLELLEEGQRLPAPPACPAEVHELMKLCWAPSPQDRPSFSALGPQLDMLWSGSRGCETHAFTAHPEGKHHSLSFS
Sequence of MAP3K15 (Q6ZN16 whole entry): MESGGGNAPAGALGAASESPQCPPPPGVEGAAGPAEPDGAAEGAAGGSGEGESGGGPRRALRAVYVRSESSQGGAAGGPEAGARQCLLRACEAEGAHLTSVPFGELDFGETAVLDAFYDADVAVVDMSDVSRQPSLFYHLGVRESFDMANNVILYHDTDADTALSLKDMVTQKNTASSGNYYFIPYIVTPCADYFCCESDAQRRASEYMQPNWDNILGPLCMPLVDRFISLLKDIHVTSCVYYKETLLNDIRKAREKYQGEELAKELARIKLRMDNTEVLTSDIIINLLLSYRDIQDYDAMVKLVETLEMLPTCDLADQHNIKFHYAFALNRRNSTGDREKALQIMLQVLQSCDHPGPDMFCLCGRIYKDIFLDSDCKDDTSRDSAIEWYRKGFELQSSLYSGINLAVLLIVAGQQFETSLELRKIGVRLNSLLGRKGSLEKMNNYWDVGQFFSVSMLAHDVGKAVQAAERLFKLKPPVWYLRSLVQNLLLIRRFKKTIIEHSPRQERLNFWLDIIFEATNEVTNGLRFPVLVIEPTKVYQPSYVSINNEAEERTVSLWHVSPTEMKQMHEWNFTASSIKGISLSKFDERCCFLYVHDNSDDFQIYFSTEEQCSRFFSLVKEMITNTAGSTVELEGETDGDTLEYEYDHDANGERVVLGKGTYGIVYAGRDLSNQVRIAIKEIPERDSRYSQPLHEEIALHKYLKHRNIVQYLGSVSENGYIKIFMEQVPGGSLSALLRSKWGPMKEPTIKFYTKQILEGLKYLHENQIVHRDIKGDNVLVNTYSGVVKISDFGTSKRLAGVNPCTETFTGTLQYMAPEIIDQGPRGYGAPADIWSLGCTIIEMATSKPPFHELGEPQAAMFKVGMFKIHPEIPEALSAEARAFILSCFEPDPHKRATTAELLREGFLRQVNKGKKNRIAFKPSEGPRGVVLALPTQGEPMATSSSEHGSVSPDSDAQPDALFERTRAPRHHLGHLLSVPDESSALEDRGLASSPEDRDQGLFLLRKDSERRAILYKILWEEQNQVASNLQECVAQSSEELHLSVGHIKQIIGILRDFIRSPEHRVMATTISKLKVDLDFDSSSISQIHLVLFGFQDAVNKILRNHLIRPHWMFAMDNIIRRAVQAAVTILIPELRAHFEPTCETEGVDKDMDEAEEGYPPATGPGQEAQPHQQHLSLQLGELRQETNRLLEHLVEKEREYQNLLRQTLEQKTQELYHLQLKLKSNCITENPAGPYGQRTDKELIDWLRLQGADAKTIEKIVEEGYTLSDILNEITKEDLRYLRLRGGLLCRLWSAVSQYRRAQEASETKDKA

COc1nc(N[C@H]2CC[C@H](NS(=O)(=O)CC(C)C)CC2)nc2[nH]nc(N3CCOC[C@H]3C)c12 [compound 39, N-(trans-4-((4-Methoxy-3-((R)-3-methylmorpholino)-1H-pyrazolo[3,4-d]pyrimidin-6-yl)amino)cyclohexyl)-2-methylpropane-1-sulfonamide]
≥ 20 µM: all assays above
